Source: PubChem BioAssay AID1963845 (Molecular Pharmacology Branch, DTP, NCI, 2024)

Tested on: 429239-143-T-J1-PDC complex spheroid viability
Test: Anticancer human tumor 429239-143-T-J1-PDC patient-derived small cell lung carcinoma cell line growth inhibition [POLQ]
Details: for IC50: curve of first compound; for viability, T/C: stronger effect = lower value
Method: Multicellular complex tumor spheroid response to Polymerase (POL) inhibitors (novobiocin, ART-558, RP6685) in combination with a variety of drugs and investigational agents in selected tumor cell lines
The POL inhibitors (novobiocin, ART-558, and RP6685) were evaluated both individually and in combination with standard of care and investigational anticancer small molecules within a complex spheroid model of solid tumors. . Complex spheroids include a stromal component modeled by human endothelial cells (HUVEC) and fibroblasts modeled by human mesenchymal stem cells (MSCs). The concentration ranges selected for each drug and investigational agent were based upon clinically achievable concentrations if the clinical Cmax of the agent was known.
Compounds. The drugs and investigational agents: novobiocin (NSC847541), ART-558 (NSC835418), RP-6685 (NSC848927), peposertib (NSC802822), ceralasertib (NSC780249), elimusertib (NSC800525), camonsertib (NSC841442), AZD-1390 (NSC803789), olaparib (NSC753686), talazoparib (NSC767125), rucaparib (NSC756644), sotorasib (NSC818433), MRTX-1133 (NSC836407), SN-38 (NSC673596), topotecan (NSC609699), epotoside (NSC141540), doxorubicin (NSC123127), gemcitabine (NSC613327), 5-fluorouracil (NSC19893), paclitaxel (NSC125973), vemurafenib (NSC761431), MSA-2 (NSC828583), SN-011 (NSC837082), adavosertib (NSC754352), prexasertib (NSC758257), carboplatin (NSC241240) and oxaliplatin (NSC266046), were obtained from the National Cancer Institute (NCI) Developmental Therapeutics Program Chemical Repository (21). The FDA-approved anticancer drug set is available from the Developmental Therapeutics Program at https://dtp.cancer.gov/organization/dscb/obtaining/. […] The stock solutions were prepared in dimethyl sulfoxide (DMSO, Sigma-Aldrich, St. Louis, MO, cat. D2650), except for the platinum compounds which were prepared in saline (Quality Biological, Gaithersburg, MD, cat. 114-055-101), at 800-fold the tested concentration and stored at -70 degrees C prior to their use. All drugs and investigational agents were tested over a range starting from a high concentration at or near the clinical Cmax and decreasing in half-log increments. If the clinical Cmax for an agent had not been determined, the highest concentration tested was 10 microM, except for SN-38, which was tested at a high concentration of 1 microM.
Cell Culture. All cells were maintained in an incubator at 37 degrees C and 5% CO2 with 95% humidity. The PDC lines were cultured according to standard operating procedures established by the NCI PDMR (https://pdmr.cancer.gov). Table 3 of the manuscript, lists the cell lines along with the number of the three cell types plated to form the mct-spheroids and media for tumor cell growth. After thawing, all PDC lines, except 997537-175-T-J1-PDC and 415267-285-R-J2-PDC, were cultured in Matrigel-coated flasks prepared with a working solution of 1X Ham's F-12 nutrient mix, without supplementation (Thermo Fisher Scientific, cat. 11765054), 100 U/mL penicillin-streptomycin (Thermo Fisher Scientific, cat. 15140122), and 2.5% Matrigel (Corning Inc., Corning, NY, cat. 354248) for the first three passages. The two PDC lines 997537-175-T-J1-PDC and 415267-285-R-J2-PDC were cultured on uncoated flasks. The 857933-349-R-J2-PDC line was cultured in 6C/Colon 1B media containing advanced DMEM/F-12 (Thermo Fisher Scientific, cat. 12634028), 10 mM HEPES (Thermo Fisher Scientific, cat. 15630080), 1X GlutaMAX supplement (Thermo Fisher Scientific, cat. 35050061), 0.1 mg/mL primocin (InvivoGen, San Diego, CA, cat. ant-pm-2), 10% defined fetal bovine serum, heat inactivated (HyClone Laboratories Inc., Logan, UT, cat. SH30070.03HI), 50% L-WRN conditioned media (ATCC, cat. CRL-3276), 1.25 mM N-Acetyl-L-cysteine (Sigma-Aldrich, cat. A9165), 10 mM nicotinamide (Sigma-Aldrich, cat. N0636), 1X B-27 supplement (Thermo Fisher Scientific, cat. 17504044), 1X N-2 supplement (Thermo Fisher Scientific, cat. […]

[1] = second compound 0.0316 µM, first compound 0.0316 µM
[2] = second compound 0.0316 µM, first compound 0.1 µM
[3] = second compound 0.0316 µM, first compound 0.316 µM
[4] = second compound 0.0316 µM, first compound 1 µM
[5] = second compound 0.0316 µM, first compound 3.16 µM
[6] = second compound 0.0316 µM, first compound 10 µM
[7] = second compound 0.1 µM, first compound 0.0316 µM
[8] = second compound 0.1 µM, first compound 0.1 µM
[9] = second compound 0.1 µM, first compound 0.316 µM
[10] = second compound 0.1 µM, first compound 1 µM
[11] = second compound 0.1 µM, first compound 3.16 µM
[12] = second compound 0.1 µM, first compound 10 µM
[13] = second compound 0.316 µM, first compound 0.0316 µM
[14] = second compound 0.316 µM, first compound 0.1 µM
[15] = second compound 0.316 µM, first compound 0.316 µM
[16] = second compound 0.316 µM, first compound 1 µM
[17] = second compound 0.316 µM, first compound 3.16 µM
[18] = second compound 0.316 µM, first compound 10 µM
[19] = second compound 1 µM, first compound 0.0316 µM
[20] = second compound 1 µM, first compound 0.1 µM
[21] = second compound 1 µM, first compound 0.316 µM
[22] = second compound 1 µM, first compound 1 µM
[23] = second compound 1 µM, first compound 3.16 µM
[24] = second compound 1 µM, first compound 10 µM
[25] = second compound 3.16 µM, first compound 0.0316 µM
[26] = second compound 3.16 µM, first compound 0.1 µM
[27] = second compound 3.16 µM, first compound 0.316 µM
[28] = second compound 3.16 µM, first compound 1 µM
[29] = second compound 3.16 µM, first compound 3.16 µM
[30] = second compound 3.16 µM, first compound 10 µM
[31] = second compound 10 µM, first compound 0.0316 µM
[32] = second compound 10 µM, first compound 0.1 µM
[33] = second compound 10 µM, first compound 0.316 µM
[34] = second compound 10 µM, first compound 1 µM
[35] = second compound 10 µM, first compound 3.16 µM
[36] = second compound 10 µM, first compound 10 µM
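Also: luminescence signal used as surrogate measure of viable cells; spheroids exposed to compounds for seven days before readout.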
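For viability, T/C in this document: 100% = DMSO vehicle control viability as luminescence relative to vehicle.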

With `CC1COCCN1c1cc(-c2ccnn2C)c2ccnc(-c3ccn[nH]3)c2n1` (centres undefined) + Nc1ccc(C#CCN(C(=O)Cc2ncc(C(F)(F)F)cc2C(F)(F)F)c2ccc(F)cc2)nn1 the IC50 (second compound 0.0316 µM) was 545 nM, the IC50 (second compound 0.1 µM) was 469 nM and the IC50 (second compound 0.316 µM) was 466 nM. For the same molecule, the IC50 (second compound 1 µM) was 373 nM, the IC50 (second compound 3.16 µM) was 343 nM and the IC50 (second compound 10 µM) was 280 nM. It also gave a viability, T/C [1] of 95%, a viability, T/C [2] of 77.8% and a viability, T/C [3] of 68.3%. The viability, T/C [4] was 33.4%, the viability, T/C [5] was 4.99% and the viability, T/C [6] was 3.79%. For the same molecule, the viability, T/C [7] was 91.9%, the viability, T/C [8] was 80.6% and the viability, T/C [9] was 62.9%. For the same molecule, the viability, T/C [10] was 27.8%, the viability, T/C [11] was 5.19% and the viability, T/C [12] was 4.25%. The viability, T/C [13] was 91.5%, the viability, T/C [14] was 78.6% and the viability, T/C [15] was 64.7%. The viability, T/C [16] was 24.5%, the viability, T/C [17] was 5.31% and the viability, T/C [18] was 3.76%. It also gave a viability, T/C [19] of 86.8%, a viability, T/C [20] of 72% and a viability, T/C [21] of 56.1%. It also gave a viability, T/C [22] of 26.2%, a viability, T/C [23] of 5.38% and a viability, T/C [24] of 4.35%. The viability, T/C [25] was 87.9%, the viability, T/C [26] was 72.5% and the viability, T/C [27] was 53.1%. For the same molecule, the viability, T/C [28] was 26.6%, the viability, T/C [29] was 5.52% and the viability, T/C [30] was 3.58%. It also gave a viability, T/C [31] of 89.4%, a viability, T/C [32] of 71.2% and a viability, T/C [33] of 47.4%. For the same molecule, the viability, T/C [34] was 25.8%, the viability, T/C [35] was 4.8% and the viability, T/C [36] was 3.43%.

`COc1ccc([C@@H](O)c2cc(-c3ncnc4cc(N5CCOCC5)ccc34)c(F)cc2Cl)nn1` + Nc1ccc(C#CCN(C(=O)Cc2ncc(C(F)(F)F)cc2C(F)(F)F)c2ccc(F)cc2)nn1 showed an IC50 (second compound 0.0316 µM) of 9310 nM, an IC50 (second compound 0.1 µM) of 9660 nM and an IC50 (second compound 0.316 µM) of 8870 nM. It also gave an IC50 (second compound 1 µM) greater than 10000 nM, an IC50 (second compound 3.16 µM) of 8130 nM and an IC50 (second compound 10 µM) of 7290 nM. The viability, T/C [1] was 92%, the viability, T/C [2] was 103% and the viability, T/C [3] was 102%. It also gave a viability, T/C [4] of 98.8%, a viability, T/C [5] of 90.1% and a viability, T/C [6] of 47.2%. For the same molecule, the viability, T/C [7] was 97.8%, the viability, T/C [8] was 105% and the viability, T/C [9] was 101%. For the same molecule, the viability, T/C [10] was 94.3%, the viability, T/C [11] was 86.1% and the viability, T/C [12] was 48.4%. It also gave a viability, T/C [13] of 107%, a viability, T/C [14] of 101% and a viability, T/C [15] of 102%. For the same molecule, the viability, T/C [16] was 112%, the viability, T/C [17] was 88.8% and the viability, T/C [18] was 45.5%. It also gave a viability, T/C [19] of 97.8%, a viability, T/C [20] of 86.6% and a viability, T/C [21] of 97%. For the same molecule, the viability, T/C [22] was 100%, the viability, T/C [23] was 84% and the viability, T/C [24] was 55.8%. The viability, T/C [25] was 106%, the viability, T/C [26] was 102% and the viability, T/C [27] was 96.8%. For the same molecule, the viability, T/C [28] was 96.6%, the viability, T/C [29] was 78.7% and the viability, T/C [30] was 43.5%. It also gave a viability, T/C [31] of 95.2%, a viability, T/C [32] of 94.4% and a viability, T/C [33] of 108%. It also gave a viability, T/C [34] of 97%, a viability, T/C [35] of 72.1% and a viability, T/C [36] of 41.6%.
